Drawing on patent US12122763B2, “Substituted piperidines for androgen receptor degradation” (UBIX THERAPEUTICS, INC., priority 2020, dated 2024), this text covers inhibition for 11 molecules.

This assay concerns the target T1, Androgen Receptor (AR) protein (Homo sapiens, UniProt P10275, T878A).
T1 construct: endogenous in cells; host or cells: LNCaP
Nature of the assay: Androgen Receptor (AR) protein degradation assay in LNCaP cells, western blotting. The assay is classed as cell-based. To be noted: 20 h; for inhibition at 0.01 µM: 0.01 μM compound; for inhibition at 0.1 µM: 0.1 μM compound; for inhibition at 1 µM: 1 μM compound. The method, then: Experimental Example 1: Androgen Receptor (AR) Protein Degradation Assay
After treating LNCaP cells with the synthesized Example compound, the amount of AR protein present in the cells was measured. The amount of AR protein was measured using western blotting detection method. The protocol of the experiment using LNCaP cells was as follows:
[Culture] LNCaP cells were resuspended in RPMI1640 MEDIUM (Hyclone, SH30027.01), 10% FBS (Hyclone, SV30207.02), and 1% Penicillin-streptomycin (Welgene, LS 202-02) media to be 3×10^5/mL. Then, 1 mL each was seeded in a 12-well plate. After that, they were cultured for 3 days.
[Compound treatment] 10 μl of 0.1, 1, 10, and 100 μM compound, which is the final compound treatment concentration and a 100× stock of 0.001, 0.01, 0.1, and 1 μM, was added in 1 ml media of each well, and 20 hours later, the cells were harvested.
[Cell Lysis] Cell pellets were suspended using 1% SDS lysis buffer (50 mM Tris, 1 mM EDTA, 1% SDS, pH 8.0, 0.5 mM PMSF, 1× Protease/Phosphatase inhibitor Cocktail (Cell Signaling Technology, 5872s)), and sonication (70% AMP, 5 cycles (30 sec ON/59 sec OFF)) was performed. Cell lysate was obtained after centrifugation at 4° C., 15000 g, for 20 minutes.
[Protein quantification] A BCA protein assay (SMART™ BCA Protein Assay Kit, iNtRON Biotechnology, 21071) was performed using a 96-well microplate. After adding 5 μl cell lysate and 5 μl 1% SDS lysis buffer to each well of the 96-well plate, 200 μl of BCA reagent (Reagent A:Reagent B=50:1) was additionally added. After incubation at 37° C. for 30 minutes, it was cooled at room temperature for 10 minutes. Then, absorbance was measured at a wavelength of 562 nm. The unknown protein concentration was measured using a BSA standard curve (0, 0.125, 0.25, 0.5, 1, 2 mg/ml). Western blotting samples were prepared by mixing cell lysate, 1% SDS lysis buffer, 4× Bolt™ LDS Sample buffer (Invitrogen, B0008), and 10× Bolt™ Sample Reducing Agent (Invitrogen, B0009) and boiling the mixture at 70° C. for 10 minutes.
[Electrophoresis] After loading 8 μg of protein sample into each well of Bolt™ 4 to 12%, Bis-Tris, 1.0 mm Mini Protein Gel, 17-well (Invitrogen, NW04127BOX), Bolt™ MES SDS Running Buffer (Invitrogen, B0002) was used for electrophoresis at 200V (constant V) for 50 minutes.
[Transfer] Using electrophoresis gel and Trans-Blot® Turbo™ Transfer Starter System (Bio-RAD, #17001918, Mini Nitrocellulose), transfer proceeded for 15 minutes under the condition of 1.3A (Constant A) and 25V (Limit V). To confirm protein transfer, 15 ml of Ponceau S solution (Sigma, P7170-1L) was used for staining for 1 minute, followed by washing to confirm the degree of transfer.
[Blocking] Membranes for AR detection were blocked for 45 minutes with 5% skim milk/0.2% TBST (Skim milk: BD, 232100/20× TBS: Biosesang, TR2008-100-00/10% Tween 20 Solution: Bio-RAD, #161-0781). Membranes for GAPDH and β-actin detection were blocked for 45 minutes with Odyssey blocking buffer: 0.1% TBST=1:1 (Odyssey blocking buffer: Li-COR Biosciences, 927-50000).
[Antibody and detection] The primary AR antibody (Androgen Receptor: CST, 5153s) was mixed with 5% skim milk/0.2% TBST at a ratio of 1:1000 and attached for 3 hours at room temperature. Primary β-actin antibody (GeneTex, 629630) was mixed with 5% BSA/0.2% TBST at a ratio of 1:2000 and attached for 3 hours at room temperature. Primary GAPDH antibody (GeneTex, 100118) was mixed with 5% BSA/0.2% TBST at a ratio of 1:2000 and attached for 3 hours at room temperature. After 3 hours, it was washed 3 times every 5 minutes using TBST (0.2% Tween 20). Anti-rabbit IgG, HRP-linked Antibody (CST, 7074s), secondary antibody for the AR antibody was mixed with 5% skim milk/0.2% TBST at a ratio of 1:5000 and attached for 45 minutes at room temperature. […]
On the technique in general: A western blot detects proteins with antibodies after separation by electrophoresis.

T1 sequence (P10275 whole entry T878A): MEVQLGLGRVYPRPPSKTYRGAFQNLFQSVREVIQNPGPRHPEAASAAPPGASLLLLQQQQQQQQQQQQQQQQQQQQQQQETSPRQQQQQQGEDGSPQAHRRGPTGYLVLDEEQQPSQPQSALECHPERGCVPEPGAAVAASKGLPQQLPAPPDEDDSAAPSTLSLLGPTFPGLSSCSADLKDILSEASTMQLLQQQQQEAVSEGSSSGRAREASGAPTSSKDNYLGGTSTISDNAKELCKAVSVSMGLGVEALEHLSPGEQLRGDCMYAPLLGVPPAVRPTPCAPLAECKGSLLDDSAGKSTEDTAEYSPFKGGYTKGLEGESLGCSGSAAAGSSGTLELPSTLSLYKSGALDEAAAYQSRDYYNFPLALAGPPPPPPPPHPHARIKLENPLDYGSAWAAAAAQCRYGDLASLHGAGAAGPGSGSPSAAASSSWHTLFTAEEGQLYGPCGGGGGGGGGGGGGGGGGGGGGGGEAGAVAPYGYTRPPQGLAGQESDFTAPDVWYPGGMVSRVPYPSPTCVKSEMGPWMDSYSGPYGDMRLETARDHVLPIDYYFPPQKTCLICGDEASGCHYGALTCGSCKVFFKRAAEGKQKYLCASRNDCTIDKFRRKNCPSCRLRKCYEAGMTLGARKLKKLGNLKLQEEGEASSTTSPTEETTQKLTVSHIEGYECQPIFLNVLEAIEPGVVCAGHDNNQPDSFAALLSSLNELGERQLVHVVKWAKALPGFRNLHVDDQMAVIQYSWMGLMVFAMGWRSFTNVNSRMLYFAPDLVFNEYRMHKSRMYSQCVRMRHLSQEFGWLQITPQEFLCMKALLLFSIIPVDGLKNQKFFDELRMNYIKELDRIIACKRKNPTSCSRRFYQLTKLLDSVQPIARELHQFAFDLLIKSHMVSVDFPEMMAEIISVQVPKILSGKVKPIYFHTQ
T1 sequence (Q96SW2 whole entry partner): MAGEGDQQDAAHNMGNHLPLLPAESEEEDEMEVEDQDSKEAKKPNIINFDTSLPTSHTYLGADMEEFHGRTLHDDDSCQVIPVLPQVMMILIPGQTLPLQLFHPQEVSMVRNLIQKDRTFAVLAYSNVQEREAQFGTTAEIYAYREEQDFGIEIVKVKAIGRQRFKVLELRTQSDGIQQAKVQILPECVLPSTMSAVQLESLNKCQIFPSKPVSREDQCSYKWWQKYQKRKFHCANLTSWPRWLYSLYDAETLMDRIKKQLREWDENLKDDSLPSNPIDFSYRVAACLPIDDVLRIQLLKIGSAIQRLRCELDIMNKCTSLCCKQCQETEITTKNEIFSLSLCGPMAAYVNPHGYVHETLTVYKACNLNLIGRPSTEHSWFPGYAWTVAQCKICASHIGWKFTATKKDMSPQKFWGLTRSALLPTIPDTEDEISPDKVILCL

By inhibition is commonly meant the percentage by which the read-out fell short of the control. Read a low inhibition as little suppression. As for `N#Cc1ccc(N2CCC(C(=O)Nc3ccc(N4CCC(CN5CCN(CC6CCN(c7cccc8c7C(=O)N(C7CCC(=O)NC7=O)C8=O)CC6)CC5)CC4)cn3)CC2)cc1C(F)(F)F` (stereo not drawn) [Example 13, 1-(4-cyano-3-(trifluoromethyl)phenyl)-N-(5-(4-((4-((1-(2-(2,6-dioxopiperidin-3-yl)-1,3-dioxoisoindolin-4-yl)piperidin-4-yl)methyl)piperazin-1-yl)methyl)piperidin-1-yl)pyridin-2-yl)piperidine-4-carboxamide], the inhibition at 0.01 µM was found to be 59%, testing at 0.1 µM gave an inhibition of 91% and the inhibition at 1 µM worked out at 94%.

In the case of `N#Cc1ccc(N2CCC(C(=O)Nc3ccc(N4CCC(CN5CCN(C[C@H]6CCN(c7ccc8c(c7)C(=O)N(C7CCC(=O)NC7=O)C8=O)C6)CC5)CC4)cn3)CC2)cc1C(F)(F)F` (stereo partly drawn) [Example 14, 1-(4-cyano-3-(trifluoromethyl)phenyl)-N-(5-(4-((4-(((3R)-1-(2-(2,6-dioxopiperidin-3-yl)-1,3-dioxoisoindolin-5-yl)pyrrolidin-3-yl)methyl)piperazin-1-yl)methyl)piperidin-1-yl)pyridin-2-yl)piperidine-4-carboxamide], the inhibition at 0.01 µM was 72%, the inhibition at 0.1 µM was determined as 98% and 1 µM produced 97% inhibition.

As to `N#Cc1ccc(N2CCC(C(=O)Nc3ccc(N4CCC(CN5CCN(C[C@@H]6CCN(c7ccc8c(c7)C(=O)N(C7CCC(=O)NC7=O)C8=O)C6)CC5)CC4)cn3)CC2)cc1C(F)(F)F` (stereo partly drawn) [Example 15, 1-(4-cyano-3-(trifluoromethyl)phenyl)-N-(5-(4-((4-(((3S)-1-(2-(2,6-dioxopiperidin-3-yl)-1,3-dioxoisoindolin-5-yl)pyrrolidin-3-yl)methyl)piperazin-1-yl)methyl)piperidin-1-yl)pyridin-2-yl)piperidine-4-carboxamide], the inhibition at 0.01 µM stood at 60%, testing at 0.1 µM gave an inhibition of 97% and the inhibition at 1 µM is 98%.

Turning to `N#Cc1ccc(N2CCC(C(=O)Nc3ccc(N4CCC(CN5CCN(C[C@H]6CCCN(c7ccc8c(c7)C(=O)N(C7CCC(=O)NC7=O)C8=O)C6)CC5)CC4)cn3)CC2)cc1C(F)(F)F` (stereo partly drawn) [Example 16, 1-(4-cyano-3-(trifluoromethyl)phenyl)-N-(5-(4-((4-(((3R)-1-(2-(2,6-dioxopiperidin-3-yl)-1,3-dioxoisoindolin-5-yl)piperidin-3-yl)methyl)piperazin-1-yl)methyl)piperidin-1-yl)pyridin-2-yl)piperidine-4-carboxamide], the inhibition at 0.01 µM was found to be 50%, the inhibition at 0.1 µM came to 94% and the inhibition at 1 µM amounted to 97%.

Take `N#Cc1ccc(N2CCC(C(=O)Nc3ccc(N4CCC(CN5CCN(C[C@@H]6CCCN(c7ccc8c(c7)C(=O)N(C7CCC(=O)NC7=O)C8=O)C6)CC5)CC4)cn3)CC2)cc1C(F)(F)F` (stereo partly drawn) [Example 17, 1-(4-cyano-3-(trifluoromethyl)phenyl)-N-(5-(4-((4-(((3S)-1-(2-(2,6-dioxopiperidin-3-yl)-1,3-dioxoisoindolin-5-yl)piperidin-3-yl)methyl)piperazin-1-yl)methyl)piperidin-1-yl)pyridin-2-yl)piperidine-4-carboxamide]: testing at 0.01 µM gave an inhibition of 44%, 0.1 µM produced 90% inhibition and the inhibition at 1 µM worked out at 90%.

`N#Cc1ccc(N2CCC(C(=O)Nc3ccc(N4CCC(CN5CCN(CC6CCN(c7cc8c(cc7F)C(=O)N(C7CCC(=O)NC7=O)C8=O)CC6)CC5)CC4)cn3)CC2)cc1C(F)(F)F` (stereo not drawn) [Example 18, 1-(4-cyano-3-(trifluoromethyl)phenyl)-N-(5-(4-((4-((1-(2-(2,6-dioxopiperidin-3-yl)-6-fluoro-1,3-dioxoisoindolin-5-yl)piperidin-4-yl)methyl)piperazin-1-yl)methyl)piperidin-1-yl)pyridin-2-yl)piperidine-4-carboxamide] came in with an inhibition at 0.01 µM of 36%, an inhibition at 0.1 µM of 93% and an inhibition at 1 µM of 95%.

In turn, `N#Cc1ccc(N2CCC(C(=O)Nc3ccc(N4CCC(CN5CCN(C[C@H]6CCN(c7cc8c(cc7F)C(=O)N(C7CCC(=O)NC7=O)C8=O)C6)CC5)CC4)cn3)CC2)cc1C(F)(F)F` (stereo partly drawn) [Example 19, 1-(4-cyano-3-(trifluoromethyl)phenyl)-N-(5-(4-((4-(((3R)-1-(2-(2,6-dioxopiperidin-3-yl)-6-fluoro-1,3-dioxoisoindolin-5-yl)pyrrolidin-3-yl)methyl)piperazin-1-yl)methyl)piperidin-1-yl)pyridin-2-yl)piperidine-4-carboxamide] yielded an inhibition at 0.01 µM of 42%, an inhibition at 0.1 µM of 93% and an inhibition at 1 µM of 96%.

`N#Cc1ccc(N2CCC(C(=O)Nc3ccc(N4CCC(CN5CCN(CC6CN(c7cc8c(cc7F)C(=O)N(C7CCC(=O)NC7=O)C8=O)C6)CC5)CC4)cn3)CC2)cc1C(F)(F)F` (stereo not drawn) [Example 20, 1-(4-cyano-3-(trifluoromethyl)phenyl)-N-(5-(4-((4-((1-(2-(2,6-dioxopiperidin-3-yl)-6-fluoro-1,3-dioxoisoindolin-5-yl)azetidin-3-yl)methyl)piperazin-1-yl)methyl)piperidin-1-yl)pyridin-2-yl)piperidine-4-carboxamide] showed an inhibition at 0.01 µM of 67%, an inhibition at 0.1 µM of 97% and an inhibition at 1 µM of 97%.

Molecule `N#Cc1ccc(N2CCC(C(=O)Nc3ccc(N4CCC(CN5CCN(CC6CCN(c7ccc8c(c7)C(=O)N(C7CCC(=O)NC7=O)C8=O)CC6)CC5)CC4)cc3)CC2)cc1C(F)(F)F` (stereo not drawn) [Example 21, 1-(4-cyano-3-(trifluoromethyl)phenyl)-N-(4-(4-((4-((1-(2-(2,6-dioxopiperidin-3-yl)-1,3-dioxoisoindolin-5-yl)piperidin-4-yl)methyl)piperazin-1-yl)methyl)piperidin-1-yl)phenyl)piperidine-4-carboxamide] had an inhibition at 0.01 µM of 47%, an inhibition at 0.1 µM of 50% and an inhibition at 1 µM of 63%.

`N#Cc1ccc(N2CCC(C(=O)Nc3ccc(N4CCC(CN5CCN(C[C@H]6CCN(c7ccc8c(c7)C(=O)N(C7CCC(=O)NC7=O)C8=O)C6)CC5)CC4)cc3)CC2)cc1C(F)(F)F` (stereo partly drawn) [Example 22, 1-(4-cyano-3-(trifluoromethyl)phenyl)-N-(4-(4-((4-(((3R)-1-(2-(2,6-dioxopiperidin-3-yl)-1,3-dioxoisoindolin-5-yl)pyrrolidin-3-yl)methyl)piperazin-1-yl)methyl)piperidin-1-yl)phenyl)piperidine-4-carboxamide] displayed an inhibition at 0.01 µM of 1%, an inhibition at 0.1 µM of 24% and an inhibition at 1 µM of 49%.

`C[C@@H]1CN(CC2CCN(c3ccc4c(c3)C(=O)N(C3CCC(=O)NC3=O)C4=O)CC2)CCN1CC1CCN(c2ccc(NC(=O)C3CCN(c4ccc(C#N)c(C(F)(F)F)c4)CC3)nc2)CC1` (stereo partly drawn) [Example 23, 1-(4-cyano-3-(trifluoromethyl)phenyl)-N-(5-(4-(((2R)-4-((1-(2-(2,6-dioxopiperidin-3-yl)-1,3-dioxoisoindolin-5-yl)piperidin-4-yl)methyl)-2-methylpiperazin-1-yl)methyl)piperidin-1-yl)pyridin-2-yl)piperidine-4-carboxamide] registered an inhibition at 0.01 µM of 69%, an inhibition at 0.1 µM of 98% and an inhibition at 1 µM of 97%.
